According to patent US20250041476A1, “ENHANCED PERFORMANCE SOLUTION FOR TISSUE GRAFTS” (The Curators of the University of Missouri, priority 2020, published 2025):

Columns and labels:
integrin β1 = conditions: chondrocytes; cited from earlier work
[1] = tested on: L929 mouse connective tissue fibroblasts; assay: Cell proliferation reagent WST-1 cell viability assay on scaffolds; assay type: cell-based; conditions: scaffolds crosslinked with 3 mM genipin
Protocol: L-929 mouse fibroblast cells were obtained from ATCC (Manassas, VA). They were cultured in EMEM (ATCC, Manassas, VA, USA) supplemented with 10% (v/v) horse serum (Sigma-Aldrich, St. Louis, MO, USA) and 200 U mL^−1 penicillin-streptomycin (Sigma-Aldrich, St. Louis, MO, USA) solution in an incubator at 37° C. and 5% CO2. 1 mL of 3×10^4 cell/mL cell solution was plated on each scaffold and allowed to grow for 1, 3, 7, or 10 days with fresh media being replaced every […].
Cell proliferation reagent WST-1 (Roche Diagnostics Corporation, Indianapolis, IN, USA) was used to evaluate the biocompatibility of the scaffolds. The WST-1 assay works via the use of tetrazolium salts. The salts were added to wells containing cells and the tissue discs. The tetrazolium salts were then cleaved to formazan by mitochondrial dehydrogenase activity. This correlates to the number of metabolically active cells. The resulting formazan was quantified using UV-vis absorbance measurements. […] After gentle mixing, 100 μL was removed from each well and absorbance readings were acquired using a Tecan Safire II plate reader. The resulting values were then calculated relative to the absorbance found on the untreated control scaffold. […]

[2] = Modulated differential scanning calorimetry of tissue scaffolds; assay type: physicochemical
Protocol: Following crosslinking, five specimens (n=5) from the 7 treatment types were rinsed in DI water and placed in an aluminum pan with a hermetic lid. The treatment types were EDC/NHS, untreated, 15 minutes crosslinking with 3 mM genipin, 4 hours crosslinking with 3 mM genipin, 8 hours crosslinking with 3 mM genipin, 24 hours crosslinking with 3 mM genipin, and 24 hours crosslinking with 10 mM genipin. The 10 mM treatment type was added to verify that increasing the genipin concentration would further increase the amount of crosslinking that occurred. The reference pan consisted of an aluminum pan containing […] of double distilled water and sealed with a hermetic lid. Each specimen was then subjected to modulated differential scanning calorimetry using a Q2000 DSC (TA Instruments, New Castle, DE, USA) to raise the temperature from 5° C. to 120° C. at a rate of 5° C. per minute with a modulation of ±0.64° C. every 80 s. The mean denaturation temperature is reported.

Denaturation temperature of tissue scaffold ([2]; 15 minutes of genipin crosslinking, 3 mM, vs untreated): significantly increases
Denaturation temperature of tissue scaffold ([2]; 24 hours of crosslinking, 3 mM genipin): significant increase
Denaturation temperature of tissue scaffold ([2]; higher genipin concentration (10 mM vs 3 mM), 24 hours): significantly increased
SMILES: COC(=O)C1=CO[C@@H](O)[C@@H]2C(CO)=CC[C@H]12 [genipin, methyl (1S,2R,6S)-2-hydroxy-9-(hydroxymethyl)-3-oxabicyclo[4.3.0]nona-4,8-diene-5-carboxylate]
mRNA expression of integrin β1 (integrin β1): halved
Cytotoxicity (biocompatibility results) [1]: not cytotoxic
